Data on two molecules can be found in patent US11185516B2 (Laboratorios Silanes S.A. DE C.V., priority 2016, dated 2021).

Structures can show the parent of a compound that is named as a salt.

The test system of series [1] is proIL-1β, TNFα, iNOS, IL-6, MCP-1 and IL-12. Briefly: Inflammation marker expression in palmitate-stimulated L1 adipocytes (RT-qPCR). The format is cell-based. Particulars: 10 mM, palmitate 500 μM, 24 h. The method, then: Palmitate is a saturated fatty acid that simulates an experimental obese state. It can be used as a pro-inflammatory stimulant for cytokines such as proIL-1β, TNFα, iNOS, IL-6, MCP-1 and IL-12.
Next, the relative expression of inflammation markers was analyzed by RT and qPCR using HPRT-1 as a normalizer and the untreated cell expression levels as a reference (for MCP-1 and IL-12) or those treated palmitate. After the treatments, culture media were collected and subsequently analyzed, cells were washed with PBS, and RNA was extracted (illustra RNAspin Mini, GE Healthcare) and reverse transcribed (High Capacity cDNA Reverse Transcription Kit, Life Technologies). The expression of the genes that were the object of the study was analyzed by qPCR using specific probes (TaqMan® Gene Expression Assays, Life Technologies). The relative expression (RQ), represented in the figure, was calculated by the ΔΔCt method.
(Quantitative PCR measures a nucleic acid by following its amplification.)

In the next series the test system is C2C12 myotubes. The series is described as follows: Glucose concentration of C2C12 myotube cultures in M1 macrophage conditioned media. The format is cell-based, mouse. The following applies: macrophages treated with 10 mM for 2 h, then LPS/IFNγ 16 h. How it is done:
There is considerable evidence showing that inflammation and hyperglycemia are interconnected: inflammation induces hyperglycemia and reciprocally hyperglycemia induces inflammation with the molecular bases not elucidated yet. To explore the participation of GPBP, glucose intake under normoglycemic conditions with conditioned media generated by macrophages differentiated to a proinflammatory M1 phenotype was monitored.
[…]. The glucose concentration of the myotube cultures was determined at different times with Glucocard (Arkray). The controls used were the C2C12 cultured with media conditioned with no stimulated macrophages (Cells) or with M1 conditioned media (M1). The initial glucose levels (time 0) were used as a reference (100%) in each series.

In the next series the test system is C57BL/6 mice. The series is described as follows: Glycemia and dietary intake in C57BL/6 mice. The class given is in vivo, mouse. Particulars: 1 week. An excerpt: The mean glycemic values at the beginning and end of the experiment are represented for each group (n=3) with their standard deviations.
The next series relates to IRS2−/− (KO) mice. The series is described as follows: Fasting glycemia and insulinemia in female IRS2−/− mice. The format is in vivo, mouse. Particulars: 4 weeks. An excerpt: Insulin resistance characterizes type 2 diabetes, obesity, and the metabolic syndrome. Thus, insulin sensitivity is a major therapeutic objective for these metabolic diseases. Insulin receptor substrate (IRS) proteins regulate the physiological actions of insulin upon binding to the receptor. Specific deletion of IRS2 in mice produces diabetes due to a developmental reduction of the pancreatic β-cell mass and the inability of existing β-cells to expand in response to peripheral insulin resistance. Additionally, IRS2-deficiency in mice causes hepatic insulin resistance concurrent with failed suppression of hepatic glucose production. While male IRS2−/− mice often die of diabetic complications by 12 weeks of age, females IRS2−/− mice develop a milder form of diabetes and many live up to 6 months. The observation that female IRS2−/− mice eat more than controls led to the discovery that this molecule is critical for hypothalamic regulation of food intake.
The mean glycemic values are represented per group (n=3) pre-treatment (black bars) and post-treatment (gray bars) along with their standard deviations. […] The fasting serum insulin levels taken pre-treatment (black bars) and post-treatment (gray bars) were determined using a kit (Millipore), following the manufacturer's instructions. Mean values and standard deviations are presented for each group (n=3) (FIG. 12D).
Due to peripheral resistance to insulin, the IRS2−/− mice also develop hyperinsulinemia.

Another series concerns AS160. The series is described as follows: In vitro AS160 phosphorylation in the presence of GPBP, AMPK and AKT. The format is biochemical. The following applies: 5 mM, with FLAG-GPBP, AKT, AMPK. The method, then:
The reactions (25 μL) were carried out at 30° C., and stirred (350 rpm) for 15 min. Then, they were stopped with a reducing loading buffer, heated (95° C., 2 min), and analyzed using electrophoresis, electrotransfer, and autoradiography.

In another series the test system is VAPA and VAMPs. Briefly: Colocalization of VAPA and VAMPs (FIG. 18).
The subject of a further series is GLUT4. Briefly: GLUT4 translocation (FIG. 19A).
In series [2] the test system is IRS2 knockout mice (KO IRS2). Briefly: Body weight in IRS2 knockout mice. The class given is in vivo, mouse. The following applies: 100 mg/kg/day, 8 weeks. How it is done:
Body weight of the mice was measured prior to the onset of treatment, at 4 weeks after treatment, and at 8 weeks after treatment. There were 8 mice in each group at the pre-treatment and 4-week treatment time points. […] Statistical differences between the experimental groups shown in FIG. 20 were assessed by Student's T test. P value of <0.05 is indicated by *.

For series [3], the system named is IRS2 knockout mice (KO IRS2). The series is described as follows: Serum triglycerides in IRS2 knockout mice. The class given is in vivo, mouse. The following applies: 100 mg/kg/day, 8 weeks, fasting. The method, then: At the 8-week treatment time point, there were 8 mice in each of the WT groups, 6 mice in the KO IRS2 untreated control group, 7 mice in the KO IRS2 SLN1 treated group, and 8 mice in the KO SLN2 treated group. Blood was collected at the time of sacrifice and used to measure TG under fasting conditions. […] Statistical differences between the experimental groups shown in FIG. 21 were assessed by Student's T test. P value of <0.05 is indicated by *.

For another series, the target named is T1, GPBP (Homo sapiens, UniProt Q9Y5P4).
T1 sequence (Q9Y5P4 1-624): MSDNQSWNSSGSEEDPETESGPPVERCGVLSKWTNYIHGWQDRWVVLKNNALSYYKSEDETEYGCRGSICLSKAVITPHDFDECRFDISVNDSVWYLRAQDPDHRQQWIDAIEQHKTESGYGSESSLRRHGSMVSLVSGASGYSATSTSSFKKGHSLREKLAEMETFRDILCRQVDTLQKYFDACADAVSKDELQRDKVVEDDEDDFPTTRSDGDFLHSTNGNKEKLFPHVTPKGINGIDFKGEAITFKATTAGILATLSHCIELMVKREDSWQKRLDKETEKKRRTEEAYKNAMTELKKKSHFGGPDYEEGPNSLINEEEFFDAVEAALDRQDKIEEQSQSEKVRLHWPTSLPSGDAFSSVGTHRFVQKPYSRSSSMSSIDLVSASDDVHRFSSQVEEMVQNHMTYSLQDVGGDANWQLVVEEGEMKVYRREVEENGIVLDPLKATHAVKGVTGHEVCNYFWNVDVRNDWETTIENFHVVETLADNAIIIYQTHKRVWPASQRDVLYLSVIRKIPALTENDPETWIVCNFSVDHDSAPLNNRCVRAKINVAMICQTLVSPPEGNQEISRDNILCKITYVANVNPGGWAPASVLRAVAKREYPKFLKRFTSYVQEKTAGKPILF
The following applies: 1 mM, 24 h.

The conditions of series [4]: Stage B, ANOVA of repeated measures.
Series [5] in a line: clinical. Particulars: both, human, in vivo, oral.
Series [6] can be described thus: clinical. Particulars: both, human, in vivo.

On to `CN(C)C(=N)N=C(N)N` [Metformin hydrochloride, metformin hydrochloride, reference compound], for which, in series [1], the “inflammatory response of palmitate-stimulated adipocytes” value is recorded as “attenuated the inflammatory response”. The “glucose levels of myotube cultures (hyperglycemic levels)” value in the series on C2C12 myotubes is given as “slowed down the progression towards hyperglycemia”. Moreover, the “glycemia, end vs beginning” value with C57BL/6 mice (100 mg/kg/day mixed with solid food, n=3) was “significantly reduced glycemia”. The “food intake compared to untreated mice” value with C57BL/6 mice (100 mg/kg/day) is “food intake was greater”. Also, in the series on IRS2−/− (KO) mice (100 mg/kg/day with food, 10-12 weeks old), the fasting glycemia post-treatment result is reported as “slightly lower, though not statistically significant”. Also, in the series on IRS2−/− (KO) mice (100 mg/kg/day), the fasting insulin levels result is on record as “higher than at the initiation of the experiment”. The “phosphorylation of AS160” value in the series on AS160 is “inhibited AS160 phosphorylation”. For the same molecule, in the series with VAPA and VAMPs, the “colocalization of VAPA and VAMPS” value is given as “reduced colocalization”; the “colocalization of VAPA and VAMPS, comparison SLN1 vs SLN2” value is reported as “greater reduction effect”. The GLUT4 translocation entry with GLUT4 was “failed to do so”. Also, the “average body weight, post- vs pre-treatment” value in series [2] is “not significantly different”. Besides, in series [3], the “serum triglycerides compared to untreated KO IRS2” value is listed as “lower”. At GPBP, the “high molecular weight GPBP aggregates” value is “not present”.

A word on the AUC: it is the area under the concentration-time curve, a measure of exposure. A higher AUC goes with more exposure. Consider `CN(C)C(=N)N=C(N)N` [Metformin, metformin], for which, in series [4], the “Ln AUCt, Ln AUC12 and Ln AUC0, differences attributed to formula, period and sequence factors” value is reported as “did not show statistically significant differences”; the “Ln Cmax, differences attributed to formula, period and sequence factors” value was “did not show statistically significant differences”; the “Ln Cmin, differences attributed to formula, period and sequence factors” value is given as “did not show statistically significant differences”. This molecule displayed an AUC in “clinical [5]” of 119 to 134 µg·h/mL. The area under the curve (AUC) in “clinical [5]” (1240 mg) lay within 76.1 to 92.5 µg·h/mL. In “clinical [6]”, this molecule had an area under the curve (AUC) of 92.4 to 109 µg·h/mL.
